Laboratory results from patent publication US12441688B1, “CCR5 inhibitor” (KING SAUD UNIVERSITY, priority 2025, dated 2025).
pIC50: −log10 of the molar value.

Biological target: T1, CCR5 receptor (Homo sapiens, UniProt P51681)
T1 construct: expressed in transfected cells; host or cells: Chinese hamster ovary (CHO) cells expressing the CCR5 receptor, kept under blasticidin S selection
Assay: CCR5 binding inhibition assay in CHO cells expressing the CCR5 receptor
From the text: All of the reagents and cell lines were obtained from commercial suppliers like Sigma Aldrich, Merck India Ltd., Himedia, and Rankem chemicals. Chinese Hamster Ovaries (CHO) cells expressing the CCR5 receptor were maintained in Ham's F-12 medium supplemented with 10% fetal calf serum, 50 units of penicillin per milliliter, and 50 micrograms of streptomycin per milliliter, in the presence of 5 micrograms of blasticidin S hydrochloride per milliliter. […] The cells were then washed. […] The inhibitory activity of the compounds on CCR5 binding was calculated using the formula: [1−(E−N)/(P−N)]×100%.
In this formula, N represents the absorbance at 450 nm in the negative control (the control antibody), while P corresponds to the absorbance in the positive control (the detecting antibody). E corresponds to the absorbance of the test compounds.
The data was analyzed using non-linear regression analysis to determine the IC50 values for both compounds.

T1 sequence (P51681 whole entry): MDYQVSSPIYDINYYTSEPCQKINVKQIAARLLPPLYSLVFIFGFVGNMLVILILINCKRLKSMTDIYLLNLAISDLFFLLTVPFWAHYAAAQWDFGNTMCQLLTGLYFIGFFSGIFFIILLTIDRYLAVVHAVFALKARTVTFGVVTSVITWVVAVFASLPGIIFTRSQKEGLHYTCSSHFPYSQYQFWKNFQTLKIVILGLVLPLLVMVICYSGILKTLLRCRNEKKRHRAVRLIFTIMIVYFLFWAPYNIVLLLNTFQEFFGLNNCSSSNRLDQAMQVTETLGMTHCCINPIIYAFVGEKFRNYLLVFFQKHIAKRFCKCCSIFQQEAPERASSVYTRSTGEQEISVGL

Percent inhibition against CCR5 (1 nM compound, listed as test compound, 0.001 µM) | inhibition at 0.001 µM (1 nM compound, read-out: Percent inhibition against CCR5) | Percent inhibition against CCR5 (10 nM compound, listed as test compound, 0.01 µM) | inhibition at 0.01 µM (10 nM compound, read-out: Percent inhibition against CCR5) | Percent inhibition against CCR5 (100 nM compound, 0.1 µM) | inhibition at 0.1 µM (100 nM compound, read-out: Percent inhibition against CCR5) | Percent inhibition against CCR5 (1000 nM compound, 1 µM) | inhibition at 1 µM (1000 nM compound, read-out: Percent inhibition against CCR5) | Percent inhibition against CCR5 (2000 nM compound, listed as test compound, 2 µM) | inhibition at 2 µM (2000 nM compound, read-out: Percent inhibition against CCR5) | pIC50 (non-linear regression) | Compound | Percent inhibition against CCR5 (1 nM compound) | Percent inhibition against CCR5 (10 nM compound) | Percent inhibition against CCR5 (100 nM compound) | Percent inhibition against CCR5 (1000 nM compound) | Percent inhibition against CCR5 (2000 nM compound)
24.5% | ≥ 24.5% | 39.8% | ≥ 39.8% | 59.1 ± 3.12% | ≥ 59.1% | 78.2 ± 4.75% | ≥ 78.2% | 91.3% | ≥ 91.3% | 8.58 | Cc1n[nH]c(C(C)C)c1C(=O)N1CCCN(Cc2ccc(Oc3ccc(C#N)cc3)cc2)CC1 [Novel Compound, 4-(4-((4-(5-isopropyl-3-methyl-1H-pyrazole-4-carbonyl)-1,4-diazepan-1-yl)methyl)phenoxy)benzonitrile] | – | – | – | – | –
– | – | – | – | – | – | – | – | – | – | – | Maraviroc [reference compound] | 20.0 ± 1.93% | 28.5 ± 2.40% | 55.1 ± 2.81% | 68.2 ± 2.97% | 85.3%
